# Where a name gives a salt, the structure may show the parent alone.
# What was measured:
# rat NaPi-2b = target: T1, rat NaPi-2b (Rattus norvegicus, UniProt Q9JJ09); assay: Sodium-dependent phosphate uptake of Xenopus oocytes which expressed NaPi-2b (32P); format: cell-based; settings: Xenopus oocytes expressing rat NaPi-2b, 32P radioactive phosphorus; read-out: IC50 (phosphate uptake inhibitory activity)
# T1 construct: expressed in transfected cells; host or cells: Xenopus oocytes injected with cRNA
# T1 sequence (Q9JJ09 1-695): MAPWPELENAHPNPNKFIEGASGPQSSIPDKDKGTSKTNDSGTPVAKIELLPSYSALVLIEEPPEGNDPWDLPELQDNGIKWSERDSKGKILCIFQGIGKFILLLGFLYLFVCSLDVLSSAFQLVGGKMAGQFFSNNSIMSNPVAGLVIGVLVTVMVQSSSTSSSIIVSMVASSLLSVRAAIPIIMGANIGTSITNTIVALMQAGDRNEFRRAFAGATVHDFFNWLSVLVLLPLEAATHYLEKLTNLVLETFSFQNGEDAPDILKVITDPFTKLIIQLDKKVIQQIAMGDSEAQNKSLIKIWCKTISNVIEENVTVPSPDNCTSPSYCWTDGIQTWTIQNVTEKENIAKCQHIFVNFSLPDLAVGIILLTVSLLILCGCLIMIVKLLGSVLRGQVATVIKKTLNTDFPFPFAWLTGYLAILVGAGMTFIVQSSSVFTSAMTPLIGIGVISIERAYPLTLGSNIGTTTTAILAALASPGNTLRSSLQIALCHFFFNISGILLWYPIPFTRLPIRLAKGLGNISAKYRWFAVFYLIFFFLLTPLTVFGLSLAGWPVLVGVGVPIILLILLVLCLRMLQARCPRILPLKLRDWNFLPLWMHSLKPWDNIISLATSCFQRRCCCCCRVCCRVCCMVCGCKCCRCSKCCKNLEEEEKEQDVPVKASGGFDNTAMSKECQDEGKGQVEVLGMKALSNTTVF
# Summary of the method: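 Percent inhibition at 300 μM and 100 μM comes from the same inhibition curve of 32P uptake. Assay used oocytes expressing rat NaPi-2b after 2 days of culture.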
# SD rats = assay: Inhibitory activity against 32P absorption from intestinal tract; format: in vivo; settings: Rattus norvegicus, oral, read-out: Blood radioactivity inhibition, %
# Procedure: Pharmacological Test Example 4
# Inhibitory Activity Against ^32P Absorption from Intestinal Tract
# SD rats (6 to 7 weeks old, obtained from Charles River Japan, Inc. (Japan)) were raised with low-phosphorus diet (phosphorus content 0.1%, manufactured by Oriental Yeast Co., Ltd. (Japan)) for 3 to 4 days and then fasted for about 24 hr for experiment. ^32P was diluted with purified water or liquid feed (CLEA JAPAN INC. (Japan)) to 0.7 to 3.5 MBq/ml and was forcibly orally administered at a dose of 5 ml/kg (administered into the gaster through an oral probe). The compounds or media were forcibly orally administered at a dose of 5 ml/kg (divided dose of twice), 30 min before the administration of ^32P and simultaneously with the administration of ^32P. Blood was collected from caudal artery 30 min, 45 min, or 60 min after ^32P administration, and blood ^32P radioactivity was measured with a liquid scintillation counter. Inhibition of an increase in blood radioactivity was used as a measure of inhibition of phosphate absorption from the intestinal tract.
# The results are expressed in terms of the percentage inhibition determined by the following equation. (Blood radioactivity for group with the administration of medium−Blood radioactivity for group with the administration of compound)/(Blood radioactivity for group with the administration of medium)×100
# t-Test was used for a significant test of the average value difference of blood radioactivity.
# [1] = system: rabbit jejunal brush border membrane vesicles; assay: Sodium-dependent phosphate uptake of rabbit jejunal brush border membrane vesicles (32P, rapid filtration); format: biochemical; settings: FIG. 1
# Description: Pharmacological Test Example 2
# Experiment of Sodium-Dependent Phosphate Uptake of Rabbit Jejunal Brush Border Membrane Vesicles
# (§1) Jejunal epithelium was obtained from New Zealand white male rabbits (7 weeks old, obtained from KITAYAMA LABES Co., Ltd. (Japan)), and brush border membrane vesicles were isolated by the calcium precipitation method described in Kanako Katai et al., J. Biochem. 121, 50-55, 1997, and Peerce, B. E. et al., Biochemistry 26, 4272-4279, 1987. Thereafter, for compound 29 and compound 68, the phosphate uptake inhibitory activity was measured using the same samples with ^32P radioactive phosphorus (manufactured by Daiichi Kagaku Inc. (Japan)) by the rapid filtration method described in Kanako Katai et al., J. Biochem. 121, 50-55, 1997. […] Further, in the same experiment, nonspective inhibitory activity against glucose absorption was determined using 14C-glucose (manufactured by Moravek Biochemical Inc. (US)). […] In both the experiments, a group with the addition of potassium chloride was used as a negative control for nonspecific uptake. All the test results given below were expressed in terms of average value±standard error. Student's t-test was used for a significant test of the control group and the test compound group.
# [2] = system: rabbit jejunal brush border membrane vesicles; assay: Nonspecific inhibitory activity against glucose absorption in rabbit jejunal brush border membrane vesicles (14C-glucose); format: biochemical; settings: FIG. 2
# Procedure: as §1
# human NaPi-2a = target: T2, human NaPi-2a (Homo sapiens, UniProt Q06495); assay: Sodium-dependent phosphate uptake of Xenopus oocytes which expressed NaPi-2a (32P); format: cell-based; settings: phosphate uptake, Xenopus oocytes expressing human NaPi-2a; five concentration levels
# T2 construct: expressed in transfected cells
# T2 sequence (Q06495 1-639): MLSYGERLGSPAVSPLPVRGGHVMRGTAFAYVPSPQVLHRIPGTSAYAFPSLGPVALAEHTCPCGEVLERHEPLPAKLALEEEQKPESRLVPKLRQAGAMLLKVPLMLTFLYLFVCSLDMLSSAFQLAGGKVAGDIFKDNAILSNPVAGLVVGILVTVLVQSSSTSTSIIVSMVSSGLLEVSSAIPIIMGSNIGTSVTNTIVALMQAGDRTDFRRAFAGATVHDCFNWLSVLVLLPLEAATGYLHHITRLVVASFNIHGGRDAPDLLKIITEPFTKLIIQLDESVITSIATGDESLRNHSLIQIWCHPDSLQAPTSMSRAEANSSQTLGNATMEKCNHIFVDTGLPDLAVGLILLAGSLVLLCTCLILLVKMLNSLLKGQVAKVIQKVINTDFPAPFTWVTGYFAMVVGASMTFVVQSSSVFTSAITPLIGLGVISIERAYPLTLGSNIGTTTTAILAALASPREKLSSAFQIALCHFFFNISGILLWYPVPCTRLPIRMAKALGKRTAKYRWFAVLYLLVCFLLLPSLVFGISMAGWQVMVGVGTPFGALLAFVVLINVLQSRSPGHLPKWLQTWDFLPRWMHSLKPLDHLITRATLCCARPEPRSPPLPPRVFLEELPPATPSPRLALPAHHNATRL
# Description: Experiment of Sodium-Dependent Phosphate Uptake of Xenopus oocytes which Expressed NaPi-2a
# In the test, a group with the addition of choline chloride (Choline Cl) was used as a negative control for nonspecific uptake, and PFA (phosphonoformic acid) was used as a positive control for phosphate transport inhibition.
structure (smiles),measurement,setting,value
"Cc1ccc(/C=N/NC(=O)c2cc(Cl)ccc2NC(=O)c2cccc(CN3CCC(N4CCCCC4)CC3)c2)cc1C [Compound 372, 3-[1,4′]Bipiperidinyl-1′-ylmethyl-N-[4-chloro-2-(3,4-dimethyl-benzylidene-hydrazinocarbonyl)-phenyl]-benzamide]",IC50,rat NaPi-2b,800 nM
same,inhibition in vivo at 100 mg/kg,SD rats,63.7%
"Cc1ccc(/C=N/NC(=O)c2cc(Br)ccc2NC(=O)c2cccnc2)cc1 [Compound 252, N-[4-Bromo-2-(4-methyl-benzylidene-hydrazinocarbonyl)-phenyl]-nicotinamide hydrochloride]",IC50,rat NaPi-2b,1490 nM
same,inhibition in vivo at 400 mg/kg,SD rats,29.2%
"COc1ccc(C(=O)Nc2ccc(Cl)cc2C(=O)N/N=C/c2ccc(Cl)c(C(F)(F)F)c2)cc1OC [Compound 88, N-[4-Chloro-2-(4-chloro-3-trifluoromethyl-benzylidene-hydrazinocarbonyl)-phenyl]-3,4-dimethoxy-benzamide]",IC50,rat NaPi-2b,220 nM
same,inhibition in vivo at 400 mg/kg,SD rats,29.1%
"Cc1cccc(/C=N/NC(=O)c2ccccc2NC(=O)c2ccncc2)c1 [Compound 253, N-[2-(3-Methyl-benzylidene-hydrazinocarbonyl)-phenyl]-isonicotinamide hydrochloride]",IC50,rat NaPi-2b,3470 nM
same,inhibition in vivo at 400 mg/kg,SD rats,39%
"COc1ccc(C(=O)Nc2ccc(Br)cc2C(=O)N/N=C/c2ccc(C)c(C)c2)cc1OC [Compound 91, N-[4-Bromo-2-(3,4-dimethyl-benzylidene-hydrazinocarbonyl)-phenyl]-3,4-dimethoxy-benzamide]",IC50,rat NaPi-2b,220 nM
same,inhibition in vivo at 320 mg/kg,SD rats,28.3%
"COc1cccc(/C=N/NC(=O)c2cc(Br)ccc2NC(=O)c2ccc(CN3CCC(N4CCCCC4)CC3)cc2)c1 [Compound 315, 4-[1,4′]Bipiperidinyl-1′-ylmethyl-N-[4-bromo-2-(3-methoxy-benzylidene-hydrazinocarbonyl)-phenyl]-benzamide]",IC50,rat NaPi-2b,9020 nM
same,inhibition in vivo at 100 mg/kg,SD rats,42.4%
"COc1ccc(C(=O)Nc2ccc(Cl)cc2C(=O)N/N=C/c2ccc(C)c(C)c2)cc1OC [Compound 92, N-[4-Chloro-2-(3,4-dimethyl-benzylidene-hydrazinocarbonyl)-phenyl]-3,4-dimethoxy-benzamide]",IC50,rat NaPi-2b,260 nM
same,inhibition in vivo at 160 mg/kg,SD rats; dose 160 mg/kg,25.5%
"O=C(Nc1ccccc1C(=O)N/N=C/c1ccc(F)cc1)c1cccnc1 [Compound 130, N-[2-(4-Fluoro-benzylidene-hydrazinocarbonyl)-phenyl]-nicotinamide]",IC50,rat NaPi-2b,11400 nM
same,inhibition in vivo at 270 mg/kg,SD rats; dose 270 mg/kg,22.8%
"Cc1ccc(/C=N/NC(=O)c2ccccc2NC(=O)c2cccnc2)cc1 [Compound 164, N-[2-(4-Methyl-benzylidene-hydrazinocarbonyl)-phenyl]-nicotinamide hydrochloride]",IC50,rat NaPi-2b,4760 nM
same,inhibition in vivo at 400 mg/kg,SD rats,55%
"O=C(Nc1ccc(Br)cc1C(=O)N/N=C/c1cccc(F)c1)c1cccs1 [Compound 157, Thiophene-2-carboxylic acid [4-bromo-2-(3-fluoro-benzylidene-hydrazinocarbonyl)-phenyl]-amide]",IC50,rat NaPi-2b,7190 nM
same,inhibition in vivo at 320 mg/kg,SD rats,20.7%
"COc1ccc(C(=O)Nc2ccc(Cl)cc2C(=O)N/N=C/c2ccc(C)cc2)cc1OC [Compound 68, N-[4-Chloro-2-(4-methyl-benzylidene-hydrazinocarbonyl)-phenyl]-3,4-dimethoxy-benzamide]",IC50,rat NaPi-2b,360 nM
same,phosphate uptake inhibitory activity,[1],concentration-dependent inhibitory activity
same,nonspecific inhibitory activity against glucose absorption,[2],did not have the inhibitory activity
"CCN(CC)CCN(C)Cc1ccc(C(=O)Nc2ccc(Br)cc2C(=O)N/N=C/c2ccc(C)cc2)cc1 [Compound 285, N-[4-Bromo-2-(4-methyl-benzylidene-hydrazinocarbonyl)-phenyl]-4-{[(2-diethylamino-ethyl)-methyl-amino]-methyl}-benzamide]",IC50,rat NaPi-2b,900 nM
same,inhibition in vivo at 80 mg/kg,SD rats; dose 80 mg/kg,60.3%
"Cc1ccc(/C=N/NC(=O)c2ccccc2NC(=O)c2cccnc2)cc1C [Compound 165, N-[2-(3,4-Dimethyl-benzylidene-hydrazinocarbonyl)-phenyl]-nicotinamide hydrochloride]",IC50,rat NaPi-2b,2430 nM
same,inhibition in vivo at 400 mg/kg,SD rats,27.6%
"Cc1ccc(/C=N/NC(=O)c2cc(Cl)ccc2NC(=O)c2cccc(CSCC(O)CO)c2)cc1 (centres unmarked) [Compound 1008, N-[4-Chloro-2-(4-methyl-benzylidene-hydrazinocarbonyl)-phenyl]-3-(2,3-dihydroxy-propylsulfanylmethyl)-benzamide]",IC50,rat NaPi-2b,300 nM
same,IC50,human NaPi-2a,2300 nM
"O=C(Nc1sc2ccccc2c1C(=O)N/N=C/c1cccc(F)c1)c1cccc(CN2CCC(CO)CC2)c1 [Compound 801, N-[3-(3-Fluoro-benzylidene-hydrazinocarbonyl)-benzo[b]thiophen-2-yl]-3-(4-hydroxymethyl-piperidin-1-ylmethyl)-benzamide]",IC50,rat NaPi-2b,4700 nM
same,IC50,human NaPi-2a,3720 nM
"Cc1ccc(/C=N/NC(=O)c2ccccc2NC(=O)c2ccncc2)cc1C [Compound 163, N-[2-(3,4-Dimethyl-benzylidene-hydrazinocarbonyl)-phenyl]-isonicotinamide hydrochloride]",IC50,rat NaPi-2b,1600 nM
same,inhibition in vivo at 360 mg/kg,SD rats; dose 360 mg/kg,57.8%
"Cc1ccc(/C=N/NC(=O)c2c(NC(=O)c3cccc(CN(CC(C)O)CC(C)O)c3)sc3ccccc23)cc1 (centres unmarked) [Compound 793, 3-{[Bis-(2-hydroxy-propyl)-amino]-methyl}-N-[3-(4-methyl-benzylidene-hydrazinocarbonyl)-benzo[b]thiophen-2-yl]-benzamide]",IC50,rat NaPi-2b,1410 nM
same,IC50,human NaPi-2a,8460 nM

# From patent US8134015B2, “Compound inhibiting in vivo phosphorous transport and medicine containing the same” (Kyowa Hakko Kirin Co., Ltd., priority 2003, dated 2012)
